Measurements taken from PMC8766756, “Insights on Cancer Cell Inhibition, Subcellular Activities, and Kinase Profile of Phenylacetamides Pending 1H-Imidazol-5-One Variants” (Frontiers in Pharmacology, 2022).
Where “and” joins values, the source holds several entries; their conditions need not be identical. Identical values can stand only once.

How the values were obtained:
Assay in all cases: PamChip tyrosine kinase microarray
Type in all cases: biochemical
Conditions in all cases: 0.1 µM, HL60 lysate
[1] = target: T1, BTK (Q06187) (Homo sapiens, UniProt Q06187)
T1 construct: purchased PamGene (PamChip PTK array, Upstream Kinase Analysis)
Summary of the method: (§1)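 HL60 (AML) cell lysate was spiked with compound at 0.001, 0.01, 0.1, 1, 10 and 50 µM, or 2% v/v DMSO as control, then profiled in technical replicates on a tyrosine kinase peptide array of 196 phosphosites. Kinase activity was inferred from peptide-set changes using an upstream kinase tool.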

[2] = target: T2, JAK3 (P52333) (Homo sapiens, UniProt P52333)
T2 construct: purchased PamGene (PamChip PTK array, Upstream Kinase Analysis)
T2 sequence (P52333 1-1124): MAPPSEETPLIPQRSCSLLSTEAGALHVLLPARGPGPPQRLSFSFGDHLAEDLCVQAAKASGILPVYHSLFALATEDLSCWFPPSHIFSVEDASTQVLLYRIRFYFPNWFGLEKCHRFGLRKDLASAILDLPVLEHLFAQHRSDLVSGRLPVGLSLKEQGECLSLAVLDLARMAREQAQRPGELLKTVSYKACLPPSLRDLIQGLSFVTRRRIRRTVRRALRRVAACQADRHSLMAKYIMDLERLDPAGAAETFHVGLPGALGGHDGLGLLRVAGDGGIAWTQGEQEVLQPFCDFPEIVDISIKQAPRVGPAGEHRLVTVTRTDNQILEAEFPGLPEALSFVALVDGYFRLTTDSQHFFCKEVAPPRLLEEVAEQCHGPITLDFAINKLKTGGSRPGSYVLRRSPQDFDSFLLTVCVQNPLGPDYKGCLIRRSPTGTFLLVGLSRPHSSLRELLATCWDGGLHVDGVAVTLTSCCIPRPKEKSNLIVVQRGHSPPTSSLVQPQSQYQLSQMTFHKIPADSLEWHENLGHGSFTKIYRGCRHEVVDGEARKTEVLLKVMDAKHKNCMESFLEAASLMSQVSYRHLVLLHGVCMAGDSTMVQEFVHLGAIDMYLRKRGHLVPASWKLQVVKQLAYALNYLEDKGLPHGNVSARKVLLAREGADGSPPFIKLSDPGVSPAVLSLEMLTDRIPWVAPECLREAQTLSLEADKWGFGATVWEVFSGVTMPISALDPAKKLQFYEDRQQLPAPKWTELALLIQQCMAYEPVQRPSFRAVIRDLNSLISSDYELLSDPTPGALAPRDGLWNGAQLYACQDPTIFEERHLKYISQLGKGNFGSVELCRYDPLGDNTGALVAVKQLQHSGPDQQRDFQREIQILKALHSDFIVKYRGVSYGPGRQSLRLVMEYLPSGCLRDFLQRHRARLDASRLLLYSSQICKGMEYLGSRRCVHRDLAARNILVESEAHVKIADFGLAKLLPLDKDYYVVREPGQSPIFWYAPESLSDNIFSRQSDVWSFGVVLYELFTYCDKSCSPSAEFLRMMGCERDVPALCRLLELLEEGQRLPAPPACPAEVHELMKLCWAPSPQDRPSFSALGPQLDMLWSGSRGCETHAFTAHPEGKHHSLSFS
Summary of the method: as §1

[3] = target: T3, Ron (Q04912) (Homo sapiens, UniProt Q04912)
T3 construct: purchased PamGene (PamChip PTK array, Upstream Kinase Analysis)
Summary of the method: as §1

T3 sequence (Q04912 25-1400): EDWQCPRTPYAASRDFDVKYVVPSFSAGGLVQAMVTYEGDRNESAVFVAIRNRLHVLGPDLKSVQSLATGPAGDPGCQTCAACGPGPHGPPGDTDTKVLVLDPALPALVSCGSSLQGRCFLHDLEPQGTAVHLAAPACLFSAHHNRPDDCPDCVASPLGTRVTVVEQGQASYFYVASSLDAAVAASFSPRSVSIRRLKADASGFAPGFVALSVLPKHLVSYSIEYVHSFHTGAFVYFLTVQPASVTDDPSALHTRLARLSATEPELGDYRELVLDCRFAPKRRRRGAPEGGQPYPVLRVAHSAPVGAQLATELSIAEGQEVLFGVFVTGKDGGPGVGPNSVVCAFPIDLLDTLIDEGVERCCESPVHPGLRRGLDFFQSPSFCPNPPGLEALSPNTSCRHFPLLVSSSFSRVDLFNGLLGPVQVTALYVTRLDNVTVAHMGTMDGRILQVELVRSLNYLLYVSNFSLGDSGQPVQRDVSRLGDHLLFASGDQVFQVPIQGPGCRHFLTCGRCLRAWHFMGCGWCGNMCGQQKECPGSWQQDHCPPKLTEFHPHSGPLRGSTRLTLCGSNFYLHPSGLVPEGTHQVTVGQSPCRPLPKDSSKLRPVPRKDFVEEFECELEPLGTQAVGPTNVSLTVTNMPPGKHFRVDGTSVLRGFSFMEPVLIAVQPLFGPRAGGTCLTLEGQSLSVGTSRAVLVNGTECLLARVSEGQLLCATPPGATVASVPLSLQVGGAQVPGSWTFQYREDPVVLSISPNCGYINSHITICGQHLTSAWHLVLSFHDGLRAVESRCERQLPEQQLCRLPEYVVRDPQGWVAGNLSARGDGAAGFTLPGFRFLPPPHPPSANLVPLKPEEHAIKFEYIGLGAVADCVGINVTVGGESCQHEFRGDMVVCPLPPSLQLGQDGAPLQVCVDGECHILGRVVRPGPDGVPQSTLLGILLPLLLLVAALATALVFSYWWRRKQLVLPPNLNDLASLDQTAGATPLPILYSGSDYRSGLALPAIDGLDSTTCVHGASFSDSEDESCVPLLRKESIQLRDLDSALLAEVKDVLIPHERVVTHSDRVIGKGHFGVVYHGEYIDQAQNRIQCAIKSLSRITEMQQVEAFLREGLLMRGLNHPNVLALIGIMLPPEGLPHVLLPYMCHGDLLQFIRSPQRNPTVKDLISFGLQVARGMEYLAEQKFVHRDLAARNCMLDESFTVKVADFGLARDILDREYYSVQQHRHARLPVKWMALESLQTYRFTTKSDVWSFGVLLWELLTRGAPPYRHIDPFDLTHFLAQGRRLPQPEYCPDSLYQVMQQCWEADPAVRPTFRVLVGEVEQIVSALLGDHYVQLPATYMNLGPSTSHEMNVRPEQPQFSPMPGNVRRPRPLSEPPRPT
T1 sequence (Q06187 whole entry): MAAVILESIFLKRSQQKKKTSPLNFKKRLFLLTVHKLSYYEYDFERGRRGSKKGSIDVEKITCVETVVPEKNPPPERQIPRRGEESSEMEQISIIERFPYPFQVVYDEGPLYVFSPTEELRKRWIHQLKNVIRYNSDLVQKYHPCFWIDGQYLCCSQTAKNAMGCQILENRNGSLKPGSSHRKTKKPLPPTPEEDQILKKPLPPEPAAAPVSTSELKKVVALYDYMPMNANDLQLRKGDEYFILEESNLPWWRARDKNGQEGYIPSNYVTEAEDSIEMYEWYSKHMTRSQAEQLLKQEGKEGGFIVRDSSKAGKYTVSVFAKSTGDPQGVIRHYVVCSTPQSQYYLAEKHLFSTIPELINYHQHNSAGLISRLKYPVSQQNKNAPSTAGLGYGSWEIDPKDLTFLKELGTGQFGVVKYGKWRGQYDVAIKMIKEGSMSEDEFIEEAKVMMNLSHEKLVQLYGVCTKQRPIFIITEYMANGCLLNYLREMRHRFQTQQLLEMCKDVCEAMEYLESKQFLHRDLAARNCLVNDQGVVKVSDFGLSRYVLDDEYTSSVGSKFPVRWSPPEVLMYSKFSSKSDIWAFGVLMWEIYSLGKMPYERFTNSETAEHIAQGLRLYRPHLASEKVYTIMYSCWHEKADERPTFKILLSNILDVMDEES

COc1ccc(/C=C2\N=C(C)N(c3ccc(CC(=O)NCc4ccccc4)cc3)C2=O)cc1 [Compound 4c, (Z)-N-Benzyl-2-(4-(4-(4-methoxybenzylidene)-2-methyl-5-oxo-4,5-dihydro-1H-imidazol-1-yl)phenyl)acetamide]
Mean Significance Score [1]: 1.957
Mean Specificity Score [1]: 0.668
Mean Final score (Kinase score) ([1]; listed as KIM-161): 2.76 and 2.762
Mean Final score (Kinase score) [2]: 1.746
Mean Kinase Statistic [2]: -1.15
Mean Significance Score [2]: 1.478
Mean Specificity Score [2]: 0.2986
Mean Significance Score [3]: 2.048
Mean Specificity Score [3]: 0.9095
Mean Final score (Kinase score) ([3]; listed as KIM-161): 2.96 and 2.957
